Results: ChEMBL document CHEMBL1136320, “Substrate properties of C5-substituted pyrimidine 2'-deoxynucleoside 5'-triphosphates for thermostable DNA polymerases during PCR” (Bioorg Med Chem Lett, 2003)

Key:
Nucleic Acid [1] = experiment: Amount of full-length DNA product formed using polymerase B Pfu; No product detected; format: nucleic-acid assay
Nucleic Acid [2] = experiment: Amount of full-length DNA product formed using polymerase B Pwo; No product detected; format: nucleic-acid assay
Nucleic Acid [3] = experiment: Amount of full-length DNA product formed using polymerase B Vent (exo); No product detected; format: nucleic-acid assay
Nucleic Acid [4] = experiment: Amount of full-length DNA product formed using polymerase A Thermo Sequenase; No product detected; format: nucleic-acid assay
Nucleic Acid [5] = experiment: Amount of full-length DNA product formed using Taq polymerase; No product detected; format: functional
Nucleic Acid [6] = experiment: Amount of full-length DNA product formed using polymerase B Deep vent (exo); No product detected; format: nucleic-acid assay
Nucleic Acid [7] = experiment: Amount of full-length DNA product formed using polymerase A Tth; No product detected; format: nucleic-acid assay
Nucleic Acid [8] = experiment: Amount of full-length DNA product formed using polymerase B Vent (exo); range is 35-70%; format: nucleic-acid assay
Nucleic Acid [9] = experiment: Amount of full-length DNA product formed using polymerase B Deep vent (exo); format: nucleic-acid assay
Nucleic Acid [10] = experiment: Amount of full-length DNA product formed using polymerase B Pwo; range is 35-70%; format: nucleic-acid assay
Nucleic Acid [11] = experiment: Amount of full-length DNA product formed using polymerase B Pfu; format: nucleic-acid assay
Nucleic Acid [12] = experiment: Amount of full-length DNA product formed using polymerase B Pwo; format: nucleic-acid assay

Activity (Nucleic Acid [1]) | Activity (Nucleic Acid [2]) | Activity (Nucleic Acid [3]) | Activity (Nucleic Acid [4]) | Activity (Nucleic Acid [5]) | Activity (Nucleic Acid [6]) | Activity (Nucleic Acid [7]) | Activity (Nucleic Acid [8]) [%] | Activity (Nucleic Acid [9]) [%] | Activity (Nucleic Acid [10]) [%] | Activity (Nucleic Acid [11]) [%] | Activity (Nucleic Acid [12]) [%] | Structure (SMILES)
Not detected | Not detected | Not detected | Not detected | Not detected | Not detected | Not detected |  |  |  |  |  | CC#Cc1cn(C2CC(O)C(COP(=O)(O)OP(=O)(O)OP(=O)(O)O)O2)c(=O)nc1N (stereo unspecified)
 |  |  | Not detected | Not detected |  | Not detected | 35 | < 35 | 35 | < 35 |  | NCCOCCOCc1cn(C2CC(O)C(COP(=O)(O)OP(=O)(O)OP(=O)(O)O)O2)c(=O)nc1N (stereo unspecified)
 |  |  | Not detected | Not detected |  | Not detected | 35 | < 35 |  | < 35 | < 35 | NCCOCCOCc1cn(C2CC(O)C(COP(=O)(O)OP(=O)(O)OP(=O)(O)O)O2)c(=O)[nH]c1=O (stereo unspecified)
